Earlier results, collected in patent US20120087859A1, “NANOCARRIER HAVING ENHANCED SKIN PERMEABILITY, CELLULAR UPTAKE AND TUMOUR DELIVERY PROPERTIES” (GWANGJU INSTITUTE OF SCIENCE AND TECHNOLOGY, priority 2010, published 2012).

Tested on: NIH/3T3 fibroblasts
Conditions: cultured NIH/3T3 fibroblasts in vitro

Question: With CC(C)(O)C(=O)c1ccc(OCCO)cc1 [Irgacure 2959, 2-hydroxy-1-[4-(2-hydroxyethoxy)phenyl]-2-methyl-1-propanone] as the compound, how does the cytotoxicity read?
Answer: almost non-cytotoxic
